# Biological target: T1, human 11β-HSD1 enzyme (Homo sapiens, UniProt P28845)
# T1 construct: stably transfected with a construct containing the full-length gene coding for the human 11β-HSD1 enzyme; expressed in transfected cells; host or cells: HEK293 (HEK293/11β-HSD1 cells)
# Test: Cellular in vitro 11β-HSD1 enzyme inhibition assay (SPA, HEK293/11β-HSD1 cells)
# Type: cell-based
# Conditions: HEK293, less than or equal to 1000 nM (1 μM)
# Description: Cellular In Vitro 11β-HSD1 Enzyme Inhibition Assay
# Compounds were assessed by a Scintillation Proximity Assay (SPA) performed according to the following protocol:
# HEK293 cells were stably transfected with a construct containing the full-length gene coding for the human 11β-HSD1 enzyme to create HEK293/11β-HSD1 cells. Cells were routinely cultured in DMEM containing 10% calf foetal serum, 1% glutamine, and 1% penicillin and streptomycin. Prior to assay, cells were plated at 2×10^4 cells/well in 96-well poly-D-Lys coated flat-bottomed microplates and incubated in 5% CO2, 95% O2 at 37° C. for 24 hours. The media in each well was removed immediately before assay.
# Compounds to be tested were dissolved in DMSO at 10 mM and serially diluted into water containing 10% DMSO. Diluted compounds at a volume of 10 μL were added to wells of a 96-well V-bottomed microplate. […] This solution (100 μL/well) was transferred to the plate containing the cells. The plate was then incubated in 5% CO2, 95% O2 at 37° C. for 2 hours.
# Following this incubation, 50 μL of the assay solution was transferred to each well of a 96-well scintillation microplate. A mixture consisting of anti-mouse YSi SPA beads, pre-mixed with anti-cortisol antibody in assay buffer (50 mM Tris.HCl, pH 7.0; 300 mM NaCl; 1 mM EDTA, 5% glycerol) was prepared and 50 μL added to each well of the scintillation microplate. An adhesive strip was applied to the microplate and the plate gently shaken for at least 2 hours at room temperature, and then spun briefly on a low speed centrifuge. The plate was read on a scintillation counter suitable for 96-well microplates. For the calculation of percentage inhibition, a series of wells were added to the plate that represented the assay maximum and the assay minimum: one set that contained substrate without cells (mimimum) and another set that contained substrate and cells without any compound (maximum).
# The calculation of median inhibitory concentration (IC50) values for the compounds was performed using GraphPad Prism® software. Dose-response curves for each compound were plotted as fractional inhibition and data fitted to the four parameter logistic equation.
# T1 sequence (P28845 whole entry): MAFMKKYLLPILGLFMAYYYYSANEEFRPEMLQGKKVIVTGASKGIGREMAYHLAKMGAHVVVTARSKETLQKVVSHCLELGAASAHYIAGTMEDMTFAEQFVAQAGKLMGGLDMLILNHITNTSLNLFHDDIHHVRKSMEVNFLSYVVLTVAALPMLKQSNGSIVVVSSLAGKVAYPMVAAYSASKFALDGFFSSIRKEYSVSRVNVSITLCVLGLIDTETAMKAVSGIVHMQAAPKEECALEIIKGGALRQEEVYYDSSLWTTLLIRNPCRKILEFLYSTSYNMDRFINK
row,IC50,SMILES
1,≤ 1000 nM,CC1(C)CCCN(C(=O)c2csc(C3CCN(C(=O)CO)CC3)c2)CC1 [CC-113]
2,≤ 1000 nM,O=C(N1CCCC1)N1CCC(c2cc(C(=O)N3CCCC4CCCCC43)cs2)CC1 (stereo not shown) [CC-116]
3,≤ 1000 nM,O=C(c1csc(C2=CCNCC2)c1)N1CCCC(F)(F)CC1 [CC-126]
4,≤ 1000 nM,CNC(=O)N1CCC(c2cc(C(=O)N3CCCCC3c3ccccc3)cs2)CC1 (stereo not shown) [CC-132]
5,≤ 1000 nM,O=C(Cc1ccccn1)N1CCC(c2cc(C(=O)N3CCCC4CCCCC43)cs2)CC1 (stereo not shown) [CC-133]
6,≤ 1000 nM,O=C(Cc1cccnc1)N1CCC(c2cc(C(=O)N3CCCC4CCCCC43)cs2)CC1 (stereo not shown) [CC-134]
7,≤ 1000 nM,O=C(c1csc(C2CCSCC2)c1)N1CCCC2CCCCC21 (stereo not shown) [CC-136]
8,≤ 1000 nM,CC1(C)CCCN(C(=O)c2csc(C3CCN(C(C)(C)C(N)=O)CC3)c2)CC1 [CC-137]
9,≤ 1000 nM,NC(=O)N1CCC(c2cc(C(=O)N3CCCC4CCCCC43)cs2)CC1 (stereo not shown) [CC-144]
10,≤ 1000 nM,CS(=O)(=O)NCC(=O)N1CCC(c2cc(C(=O)N3CCCC4CCCCC43)cs2)CC1 (stereo not shown) [CC-148]
11,≤ 1000 nM,O=C(CCc1ccncc1)N1CCC(c2cc(C(=O)N3CCCC4CCCCC43)cs2)CC1 (stereo not shown) [CC-149]
12,≤ 1000 nM,O=C(CCc1c[nH]cn1)N1CCC(c2cc(C(=O)N3CCCC4CCCCC43)cs2)CC1 (stereo not shown) [CC-151]
13,≤ 1000 nM,Cn1ccnc1CN1CCC(c2cc(C(=O)N3CCCC4CCCCC43)cs2)CC1 (stereo not shown) [CC-154]
14,≤ 1000 nM,O=C(NCCCO)N1CCC(c2cc(C(=O)N3CCCC4CCCCC43)cs2)CC1 (stereo not shown) [CC-161]
15,≤ 1000 nM,COCCNC(=O)N1CCC(c2cc(C(=O)N3CCCC4CCCCC43)cs2)CC1 (stereo not shown) [CC-164]
16,≤ 1000 nM,O=C(NCc1ccccn1)N1CCC(c2cc(C(=O)N3CCCC4CCCCC43)cs2)CC1 (stereo not shown) [CC-166]
17,≤ 1000 nM,CC(C)(C(=O)N1CCCC1)N1CCC(c2cc(C(=O)N3CCCC4CCCCC43)cs2)CC1 (stereo not shown) [CC-170]
18,≤ 1000 nM,CNC(=O)C(C)(C)N1CCC(c2cc(C(=O)N3CCCC4CCCCC43)cs2)CC1 (stereo not shown) [CC-171]
19,≤ 1000 nM,O=C(NCCO)N1CCC(c2cc(C(=O)N3CCCC4CCCCC43)cs2)CC1 (stereo not shown) [CC-173]
20,≤ 1000 nM,CC(C)(C(N)=O)N1CCC(c2cc(C(=O)N3CCCC4CCCCC43)cs2)CC1 (stereo not shown) [CC-174]
21,≤ 1000 nM,CC1(C)CCCN(C(=O)c2csc(C3CCCCC3)c2)C1 [DD-001]
22,≤ 1000 nM,CC1(C)CC2CC(C)(CN2C(=O)c2csc(C3CCCCC3)c2)C1 (stereo not shown) [DD-005]

# Further lines, the compound ahead of its results:
row,SMILES,IC50
1,CC1(C)CC2CC(C)(CN2C(=O)c2cc(C3CCOCC3)sc2Cl)C1 (stereo not shown) [CC-070],≤ 1000 nM
2,CC1(C)CC2CC(C)(CN2C(=O)c2csc(C3CCNCC3)c2)C1 (stereo not shown) [CC-072],≤ 1000 nM
3,CC1(C)CC2CC(C)(CN2C(=O)c2csc(C3CCCNC3)c2)C1 (stereo not shown) [CC-073],≤ 1000 nM
4,CC1(C)CC2CC(C)(CN2C(=O)c2csc(C3=CCNCC3)c2)C1 (stereo not shown) [CC-074],≤ 1000 nM
5,O=C(c1csc(C2CCOCC2)c1)N1CCCC2(CCCCC2)C1 [CC-077],≤ 1000 nM
6,CC(C)C(=O)N1CCC(c2cc(C(=O)N3CCCC4CCCCC43)cs2)CC1 (stereo not shown) [CC-081],≤ 1000 nM
7,COCC(=O)N1CCC(c2cc(C(=O)N3CCCC4CCCCC43)cs2)CC1 (stereo not shown) [CC-083],≤ 1000 nM
8,Cn1cncc1C(=O)N1CCC(c2cc(C(=O)N3CCCC4CCCCC43)cs2)CC1 (stereo not shown) [CC-084],≤ 1000 nM
9,CC(=O)N1CC=C(c2cc(C(=O)N3CCCC4CCCCC43)cs2)CC1 (stereo not shown) [CC-086],≤ 1000 nM
10,O=C(CO)N1CC=C(c2cc(C(=O)N3CCCC4CCCCC43)cs2)CC1 (stereo not shown) [CC-090],≤ 1000 nM
11,CS(=O)(=O)NCCC(=O)N1CC=C(c2cc(C(=O)N3CCCC4CCCCC43)cs2)CC1 (stereo not shown) [CC-091],≤ 1000 nM
12,CC1(C)CCCN(C(=O)c2csc(C3CCN(C(=O)CCNS(C)(=O)=O)CC3)c2)CC1 [CC-097],≤ 1000 nM
13,O=C(C1CC1)N1CCC(c2cc(C(=O)N3CCCC4CCCCC43)cs2)CC1 (stereo not shown) [CC-099],≤ 1000 nM
14,O=C(c1cccnc1)N1CCC(c2cc(C(=O)N3CCCC4CCCCC43)cs2)CC1 (stereo not shown) [CC-103],≤ 1000 nM
15,NC(=O)CN1CCC(c2cc(C(=O)N3CCCC4CCCCC43)cs2)CC1 (stereo not shown) [CC-108],≤ 1000 nM
16,O=C(c1csc(C2=CCNCC2)c1)N1CCCCC1c1ccccc1 (stereo not shown) [CC-123],≤ 1000 nM

# Same assay, conditions: HEK293, more than 1000 nM (1.0 μM) and less than or equal to 30 μM
row,IC50,SMILES
1,1000 to 30000 nM,O=C(CCn1ccnc1)N1CCC(c2cc(C(=O)N3CCCC4CCCCC43)cs2)CC1 (stereo not shown) [CC-117]
2,1000 to 30000 nM,O=C(c1csc(C2CCN(c3ccccn3)CC2)c1)N1CCCC2CCCCC21 (stereo not shown) [CC-120]
3,1000 to 30000 nM,CS(=O)(=O)NCCC(=O)N1CCC(c2cc(C(=O)N3CCCCC3c3ccccc3)cs2)CC1 (stereo not shown) [CC-128]
4,1000 to 30000 nM,O=C(c1csc(C2CCN(c3nc4ccccc4o3)CC2)c1)N1CCCC2CCCCC21 (stereo not shown) [CC-129]
5,1000 to 30000 nM,O=C(c1csc(C2CCNCC2)c1)N1CCC(F)(F)C2CCCCC21 (stereo not shown) [CC-131]
6,1000 to 30000 nM,CC1(C)CCCN(C(=O)c2csc(C3CCN(CC(N)=O)CC3)c2)CC1 [CC-139]
7,1000 to 30000 nM,O=C(c1csc(C2CCN(CC(O)CO)CC2)c1)N1CCCC2CCCCC21 (stereo not shown) [CC-153]
8,1000 to 30000 nM,"O=C1CCCN1CCCN1CCC(c2cc(C(=O)N3CCCC4CCCCC43)cs2)CC1 (stereo not drawn) [CC-156, cis-{1-(3-{4-[4-(Octahydro-quinoline-1-carbonyl)-thiophen-2-yl]-piperidin-1-yl}-propyl)-pyrrolidin-2-one]"
9,1000 to 30000 nM,CN(C)CCNC(=O)N1CCC(c2cc(C(=O)N3CCCC4CCCCC43)cs2)CC1 (stereo not shown) [CC-162]
10,1000 to 30000 nM,O=C(c1csc(C2CCCCC2)c1)N1CCCC2CCCCC21 (stereo not shown) [DD-003]
11,1000 to 30000 nM,O=C(c1csc(C2CCCCC2)c1)N1CCCC2(CCCCC2)C1 [DD-006]

# The next lines start with the compound.
row,SMILES,IC50
1,CC1(C)CC2CC(C)(CN2C(=O)c2csc(C3CCN(C(=O)OCc4ccccc4)CC3)c2)C1 (stereo not shown) [CC-071],1000 to 30000 nM
2,O=C(OCc1ccccc1)N1CCC(c2cc(C(=O)N3CCCC4(CCCCC4)C3)cs2)CC1 [CC-078],1000 to 30000 nM
3,O=C(c1csc(C2CCNCC2)c1)N1CCCC2(CCCCC2)C1 [CC-079],1000 to 30000 nM
4,O=C(c1csc(C2CCCNC2)c1)N1CCCC2(CCCCC2)C1 (stereo not shown) [CC-080],1000 to 30000 nM
5,O=C(CCCN1CCCCC1)N1CCC(c2cc(C(=O)N3CCCC4CCCCC43)cs2)CC1 (stereo not shown) [CC-082],1000 to 30000 nM
6,COCCCC(=O)N1CCC(c2cc(C(=O)N3CCCC4CCCCC43)cs2)CC1 (stereo not shown) [CC-085],1000 to 30000 nM
7,O=C(c1csc(C2CCN(CCS(=O)(=O)N3CCCC3)CC2)c1)N1CCCC2CCCCC21 (stereo not shown) [CC-087],1000 to 30000 nM
8,COCCCN1CCC(c2cc(C(=O)N3CCCC4CCCCC43)cs2)CC1 (stereo not shown) [CC-089],1000 to 30000 nM
9,O=C(c1csc(C2CCN(S(=O)(=O)c3ccccc3)CC2)c1)N1CCCC2CCCCC21 (stereo not shown) [CC-092],1000 to 30000 nM
10,O=C(c1csc(C2CCN(S(=O)(=O)C3CC3)CC2)c1)N1CCCC2CCCCC21 (stereo not shown) [CC-093],1000 to 30000 nM
11,COC(=O)N1CCC(c2cc(C(=O)N3CCCC(C)(C)CC3)cs2)CC1 [CC-094],1000 to 30000 nM
12,CC1(C)CCCN(C(=O)c2csc(C3CCN(C(=O)c4ccno4)CC3)c2)CC1 [CC-095],1000 to 30000 nM
13,CC1(C)CCCN(C(=O)c2csc(C3CCN(S(C)(=O)=O)CC3)c2)CC1 [CC-096],1000 to 30000 nM
14,CC(=O)N1CCC(c2cc(C(=O)N3CCCCC3c3ccccc3)cs2)CC1 (stereo not shown) [CC-098],1000 to 30000 nM
15,CC(C)(C)C(=O)N1CCC(c2cc(C(=O)N3CCCC4CCCCC43)cs2)CC1 (stereo not shown) [CC-100],1000 to 30000 nM
16,O=C(CO)N1CCC(c2cc(C(=O)N3CCCCC3c3ccccc3)cs2)CC1 (stereo not shown) [CC-102],1000 to 30000 nM
17,CC(C)S(=O)(=O)N1CCC(c2cc(C(=O)N3CCCC4CCCCC43)cs2)CC1 (stereo not shown) [CC-104],1000 to 30000 nM
18,CC(C)CS(=O)(=O)N1CCC(c2cc(C(=O)N3CCCC4CCCCC43)cs2)CC1 (stereo not shown) [CC-105],1000 to 30000 nM
19,O=C(c1csc(C2CCNCC2)c1)N1CCCCCC1c1ccccc1 (stereo not shown) [CC-107],1000 to 30000 nM
20,Cc1cc(C(=O)N2CCC(c3cc(C(=O)N4CCCC5CCCCC54)cs3)CC2)no1 (stereo not shown) [CC-109],1000 to 30000 nM
21,O=C(c1ccccc1)N1CCC(c2cc(C(=O)N3CCCC4CCCCC43)cs2)CC1 (stereo not shown) [CC-110],1000 to 30000 nM
22,O=C(c1csc(C2CCNCC2)c1)N1CCCCC1c1ccc(F)cc1 (stereo not shown) [CC-112],1000 to 30000 nM
23,CC1(C)CCCN(C(=O)c2csc(C3=CCNCC3)c2)CC1 [CC-124],1000 to 30000 nM
24,CC1(C)CCCCN(C(=O)c2csc(C3=CCNCC3)c2)C1 [CC-125],1000 to 30000 nM
